Read-outs that look alike come from different tables or passages of the source.
Experiments:
E. coli CA 8000 (WT) = format: cell-based, Escherichia coli
[1] = test system: lomefloxacin resistant cells of E. coli; format: cell-based, Escherichia coli
[2] = test system: Ethidium bromide resistant strain of Mycobacterium smegmetis; format: cell-based
Nal^R mutants of E. coli = format: cell-based, Escherichia coli
[3] = test system: Lom^R mutants of Mycobacterium smegmatis; format: cell-based; settings: Lom^R mutants
E. coli cells = test: microbe, parasite or virus in culture; format: cell-based; settings: Escherichia coli

CCn1cc(C(=O)O)c(=O)c2cc(F)c(N3CCNCC3)cc21 [Aorfloxacin]
Growth in poison agar medium (E. coli CA 8000 (WT); CA 8000 (WT), 20 μg/ml, Table 4): − | Growth in poison agar medium ([1]; CAL 101, 20 μg/ml): + | Growth in poison agar medium ([1]; CAL 102, 20 μg/ml): + | Growth in poison agar medium ([1]; CAL 103, 20 μg/ml): + | Growth in poison agar medium ([1]; CAL 104, 20 μg/ml): + | Growth in poison agar medium ([1]; CAL 105, 20 μg/ml): + | Growth in poison agar medium ([1]; CAL 106, 20 μg/ml): + | Growth in poison agar medium ([1]; CAL 107, 20 μg/ml): + | Growth in poison agar medium ([1]; CAL 108, 20 μg/ml): +

O=C(N[C@H](CO)[C@H](O)c1ccc([N+](=O)[O-])cc1)C(Cl)Cl [Chloromphenicol]
concentration against which the strain is resistant (mdr) [2]: 20 µg/mL

O=C(O)c1cn(C2CC2)c2cc(N3CCNCC3)c(F)cc2c1=O [Ciprofloxacin, ciprofloxacin]
Growth in poison agar medium (Nal^R mutants of E. coli; CAN 101, 5 μg/ml): − | Growth in poison agar medium (Nal^R mutants of E. coli; CAN 102, 5 μg/ml): − | Growth in poison agar medium (Nal^R mutants of E. coli; CAN 103, 5 μg/ml): − | Growth in poison agar medium (Nal^R mutants of E. coli; CAN 104, 5 μg/ml): − | Growth in poison agar medium (Nal^R mutants of E. coli; CAN 105, 5 μg/ml): − | Growth in poison agar medium (Nal^R mutants of E. coli; CAN 106, 5 μg/ml): − | Growth in poison agar medium (Nal^R mutants of E. coli; CAN 107, 5 μg/ml): − | Growth in poison agar medium (Nal^R mutants of E. coli; CAN 108, 5 μg/ml): − | Growth in poison agar medium (Nal^R mutants of E. coli; CAN 109, 5 μg/ml): − | Growth in poison agar medium (Nal^R mutants of E. coli; CAN 110, 5 μg/ml): − | Growth in poison agar medium (Nal^R mutants of E. coli; CAN 111, 5 μg/ml): − | Growth in poison agar medium (Nal^R mutants of E. coli; CAN 112, 5 μg/ml): − | Growth in poison agar medium (Nal^R mutants of E. coli; CAN 113, 5 μg/ml): − | Growth in poison agar medium (Nal^R mutants of E. coli; CAN 114, 5 μg/ml): − | Growth in poison agar medium (Nal^R mutants of E. coli; CAN 115, 5 μg/ml): − | Growth in poison agar medium (Nal^R mutants of E. coli; CAN 116, 5 μg/ml): − | Growth in poison agar medium (Nal^R mutants of E. coli; CAN 117, 5 μg/ml): − | Growth in poison agar medium (Nal^R mutants of E. coli; CAN 118, 5 μg/ml): − | Growth in poison agar medium (Nal^R mutants of E. coli; CAN 119, 5 μg/ml): − | Growth in poison agar medium (Nal^R mutants of E. coli; CAN 120, 5 μg/ml): − | Growth in poison agar medium (Nal^R mutants of E. coli; CAN 121, 5 μg/ml): − | Growth in poison agar medium (Nal^R mutants of E. coli; CAN 122, 5 μg/ml): − | Growth in poison agar medium (Nal^R mutants of E. coli; CAN 123, 5 μg/ml): − | Growth in poison agar medium (Nal^R mutants of E. coli; CAN 124, 5 μg/ml): − | Growth in poison agar medium (Nal^R mutants of E. coli; CAN 125, 5 μg/ml): − | Growth in poison agar medium (Nal^R mutants of E. coli; CAN 126, 5 μg/ml): − | Growth in poison agar medium (E. coli CA 8000 (WT)): − | Growth in poison agar medium ([1]; CAL 101, 2 μg/ml): + | Growth in poison agar medium ([1]; CAL 102, 2 μg/ml): + | Growth in poison agar medium ([1]; CAL 103, 2 μg/ml): + | Growth in poison agar medium ([1]; CAL 104, 2 μg/ml): + | Growth in poison agar medium ([1]; CAL 105, 2 μg/ml): + | Growth in poison agar medium ([1]; CAL 106, 2 μg/ml): + | Growth in poison agar medium ([1]; CAL 107, 2 μg/ml): + | Growth in poison agar medium ([1]; CAL 108, 2 μg/ml): + | resistance of the mutants [3]: resistant

CCn1cc(C(=O)O)c(=O)c2ccc(C)nc21 [Nalidixic Acid, nalidixic acid]
Growth in poison agar medium (Nal^R mutants of E. coli; CAN 101, 50 μg/ml): + | Growth in poison agar medium (Nal^R mutants of E. coli; CAN 102, 50 μg/ml): + | Growth in poison agar medium (Nal^R mutants of E. coli; CAN 103, 50 μg/ml): + | Growth in poison agar medium (Nal^R mutants of E. coli; CAN 104, 50 μg/ml): + | Growth in poison agar medium (Nal^R mutants of E. coli; CAN 105, 50 μg/ml): + | Growth in poison agar medium (Nal^R mutants of E. coli; CAN 106, 50 μg/ml): + | Growth in poison agar medium (Nal^R mutants of E. coli; CAN 107, 50 μg/ml): + | Growth in poison agar medium (Nal^R mutants of E. coli; CAN 108, 50 μg/ml): + | Growth in poison agar medium (Nal^R mutants of E. coli; CAN 109, 50 μg/ml): + | Growth in poison agar medium (Nal^R mutants of E. coli; CAN 110, 50 μg/ml): + | Growth in poison agar medium (Nal^R mutants of E. coli; CAN 111, 50 μg/ml): + | Growth in poison agar medium (Nal^R mutants of E. coli; CAN 112, 50 μg/ml): + | Growth in poison agar medium (Nal^R mutants of E. coli; CAN 113, 50 μg/ml): + | Growth in poison agar medium (Nal^R mutants of E. coli; CAN 114, 50 μg/ml): + | Growth in poison agar medium (Nal^R mutants of E. coli; CAN 115, 50 μg/ml): + | Growth in poison agar medium (Nal^R mutants of E. coli; CAN 116, 50 μg/ml): + | Growth in poison agar medium (Nal^R mutants of E. coli; CAN 117, 50 μg/ml): + | Growth in poison agar medium (Nal^R mutants of E. coli; CAN 118, 50 μg/ml): + | Growth in poison agar medium (Nal^R mutants of E. coli; CAN 119, 50 μg/ml): + | Growth in poison agar medium (Nal^R mutants of E. coli; CAN 120, 50 μg/ml): + | Growth in poison agar medium (Nal^R mutants of E. coli; CAN 121, 50 μg/ml): + | Growth in poison agar medium (Nal^R mutants of E. coli; CAN 122, 50 μg/ml): + | Growth in poison agar medium (Nal^R mutants of E. coli; CAN 123, 50 μg/ml): + | Growth in poison agar medium (Nal^R mutants of E. coli; CAN 124, 50 μg/ml): + | Growth in poison agar medium (Nal^R mutants of E. coli; CAN 125, 50 μg/ml): + | Growth in poison agar medium (Nal^R mutants of E. coli; CAN 126, 50 μg/ml): + | Growth in poison agar medium (E. coli CA 8000 (WT); CA 8000 (WT), 50 μg/ml, Table 2): − | Growth in poison agar medium (E. coli CA 8000 (WT); CA 8000 (WT), 50 μg/ml, Table 4): − | Growth in poison agar medium ([1]; CAL 101, 50 μg/ml): + | Growth in poison agar medium ([1]; CAL 102, 50 μg/ml): + | Growth in poison agar medium ([1]; CAL 103, 50 μg/ml): + | Growth in poison agar medium ([1]; CAL 104, 50 μg/ml): + | Growth in poison agar medium ([1]; CAL 105, 50 μg/ml): + | Growth in poison agar medium ([1]; CAL 106, 50 μg/ml): + | Growth in poison agar medium ([1]; CAL 107, 50 μg/ml): + | Growth in poison agar medium ([1]; CAL 108, 50 μg/ml): + | zone of inhibition at 0.25 µg/disc (E. coli cells; nalidixic acid 0.25 μg/disc): 3 mm | zone of inhibition at 0.5 µg/disc (E. coli cells; nalidixic acid 0.50 μg/disc): 6 mm | zone of inhibition at 1 µg/disc (E. coli cells; nalidixic acid 1.00 μg/disc): 9 mm | zone of inhibition at 1.5 µg/disc (E. coli cells; nalidixic acid 1.50 μg/disc): 11 mm | zone of inhibition at 2 µg/disc (E. coli cells; nalidixic acid 2.00 μg/disc): 12 mm

From patent US20020090380A1, “Novel formulation comprising thymol useful in the treatment of drug resistant bacterial infections” (priority 2000, published 2002)
